# Experimental data: US20260132129A1 (Genesis Therapeutics, Inc., priority 2022, published 2026)
# Biological target: T1, PI3Kα H1047R (T47D cells) (Homo sapiens, UniProt P42336, H1047R)
# T1 construct: endogenous in cells; host or cells: T47D cells
# Test: PI3Kα cellular assay: pAKT HTRF in T47D cells after EGF stimulation
# Type: cell-based
# Settings: for IC50: T47D cells (PI3Kα H1047R), pAKT S473 HTRF
# Summary of the method: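 pAKT read by HTRF in lysates of EGF-stimulated (20 ng/mL, 10 min) T47D H1047R cells. Before stimulation, serum-starved cells (16 h) received compound for 1 h at 37 °C, dosed from 10,000 nM down to 0.5 nM in 3-fold steps.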
# [1] = selectivity of T47D (H1047R) over SKBR3 (WT) pAKT IC50
# [2] = 1 hr compound, 20 ng/ml EGF 10 min
# [3] = selectivity T47D (H1047R) over SKBR3 (WT), pAKT HTRF
# T1 sequence (P42336 whole entry H1047R): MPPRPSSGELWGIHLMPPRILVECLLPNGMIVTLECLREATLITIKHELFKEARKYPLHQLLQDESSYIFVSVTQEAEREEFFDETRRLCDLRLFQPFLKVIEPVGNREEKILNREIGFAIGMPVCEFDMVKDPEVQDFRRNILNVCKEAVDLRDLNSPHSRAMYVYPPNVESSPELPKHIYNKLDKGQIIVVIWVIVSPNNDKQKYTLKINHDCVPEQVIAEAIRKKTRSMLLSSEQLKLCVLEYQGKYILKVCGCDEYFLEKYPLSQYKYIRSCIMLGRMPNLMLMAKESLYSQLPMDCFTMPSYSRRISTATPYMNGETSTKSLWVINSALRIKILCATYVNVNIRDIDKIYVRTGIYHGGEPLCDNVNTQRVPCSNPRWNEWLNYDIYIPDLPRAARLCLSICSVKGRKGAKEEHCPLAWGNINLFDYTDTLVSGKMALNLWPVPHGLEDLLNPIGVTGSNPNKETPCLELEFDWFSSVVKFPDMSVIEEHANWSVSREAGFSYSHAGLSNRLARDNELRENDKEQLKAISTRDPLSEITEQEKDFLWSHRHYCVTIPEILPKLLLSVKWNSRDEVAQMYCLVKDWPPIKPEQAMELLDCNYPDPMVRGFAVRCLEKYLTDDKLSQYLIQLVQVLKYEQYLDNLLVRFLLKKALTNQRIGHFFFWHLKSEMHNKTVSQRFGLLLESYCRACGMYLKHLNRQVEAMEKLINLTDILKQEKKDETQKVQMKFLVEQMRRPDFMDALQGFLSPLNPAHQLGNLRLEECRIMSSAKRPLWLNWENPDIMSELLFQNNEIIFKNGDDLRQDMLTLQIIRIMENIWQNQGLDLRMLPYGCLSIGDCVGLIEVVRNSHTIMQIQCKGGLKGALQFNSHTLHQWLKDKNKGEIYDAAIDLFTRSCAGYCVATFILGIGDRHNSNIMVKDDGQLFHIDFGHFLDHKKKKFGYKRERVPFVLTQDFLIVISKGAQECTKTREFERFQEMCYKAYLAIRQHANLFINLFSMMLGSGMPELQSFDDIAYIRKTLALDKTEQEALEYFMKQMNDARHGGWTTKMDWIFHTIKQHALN
# T1 sequence (P27986 whole entry partner): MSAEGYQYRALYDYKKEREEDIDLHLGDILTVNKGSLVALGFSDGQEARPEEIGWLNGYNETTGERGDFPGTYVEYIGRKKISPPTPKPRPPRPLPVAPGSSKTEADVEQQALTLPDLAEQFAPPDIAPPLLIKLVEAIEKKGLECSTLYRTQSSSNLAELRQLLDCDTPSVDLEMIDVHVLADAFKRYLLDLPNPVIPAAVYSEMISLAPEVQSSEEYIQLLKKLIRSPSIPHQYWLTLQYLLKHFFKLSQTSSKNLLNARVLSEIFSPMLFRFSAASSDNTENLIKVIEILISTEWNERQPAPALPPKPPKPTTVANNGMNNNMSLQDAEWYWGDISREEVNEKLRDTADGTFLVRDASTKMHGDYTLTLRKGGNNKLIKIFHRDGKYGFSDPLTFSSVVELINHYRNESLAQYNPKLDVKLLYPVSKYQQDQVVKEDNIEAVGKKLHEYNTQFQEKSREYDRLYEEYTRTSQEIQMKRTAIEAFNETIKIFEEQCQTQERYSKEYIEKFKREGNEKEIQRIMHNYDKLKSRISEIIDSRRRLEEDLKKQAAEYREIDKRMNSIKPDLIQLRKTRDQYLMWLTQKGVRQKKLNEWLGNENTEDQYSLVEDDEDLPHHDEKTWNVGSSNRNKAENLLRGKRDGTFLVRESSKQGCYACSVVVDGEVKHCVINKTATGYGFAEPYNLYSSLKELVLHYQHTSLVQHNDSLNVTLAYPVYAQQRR
SMILES,IC50 (EGF stimulation) [µM],T47D pAKT S473 HTRF IC50 (H1047R): T47D (H1047R) selectivity over SKBR3 (WT) [1],IC50 [2] [µM],T47D pAKT S473 HTRF IC50 (H1047R): T47D (H1047R) selectivity over SKBR3 (WT) [3]
"Cc1cc([C@@H](C)Nc2ccccc2S(N)(=O)=O)c2nc(N3C[C@@H](C)O[C@@H](C)C3)cc(=O)n2c1 (single isomer, unassigned) [Compound 730]",< 0.1,A (A denotes >20-fold),,
Cc1cc(C(C)Nc2ccccc2C(=O)O)c2nc(N3CCOC[C@H]3C)cc(=O)n2c1 (stereo partly shown) [Compound 295],,,0.5 to 2,B (B denotes 20-fold≥value>5-fold)
Cc1cc([C@@H](C)Nc2ccccc2S(N)(=O)=O)c2nc(-c3cccc(C(F)F)c3)c(C)c(=O)n2c1 [Compound 1097],< 0.1,,,A (A denotes >20-fold)
Cc1cc(C(C)Nc2cc(F)ccc2C(=O)O)c2nc(-c3cccc(F)c3)c(C)c(=O)n2c1 (stereo not shown) [Compound 1197],< 0.1,,,A (A denotes >20-fold)
Cc1cc(C(C)Nc2ccccc2-c2ccnnc2)c2nc(-c3ccc4c(C)cn(C)c4c3)c(C)c(=O)n2c1 (stereo not shown) [Compound 1132],> 2,,,C (C denotes ≤5-fold)
Cc1cc([C@H](C)Nc2ccccc2-c2ccnnc2)c2nc(-c3cccnc3)c(C)c(=O)n2c1 [Compound 1145],0.1 to 0.5,,,A (A denotes >20-fold)
Cc1cc(C(C)Nc2ccccc2)c2nc(N3Cc4ccccc4C3)c(C)c(=O)n2c1 (stereo not shown) [Compound 1085],> 2,,,C (C denotes ≤5-fold)
Cc1cc(C(C)Nc2cc(C#N)ccc2C(=O)O)c2nc(N3CCOCC3)cc(=O)n2c1 (stereo not shown) [Compound 326],,,> 2,C (C denotes ≤5-fold)
Cc1cc(C(C)Nc2ccccc2S(N)(=O)=O)c2nc(-c3cccnc3)c(C3CC3)c(=O)n2c1 (stereo not shown) [Compound 1261],0.1 to 0.5,,,A (A denotes >20-fold)
Cc1cc(C(C)Nc2ccccc2C(N)=O)c2nc(-c3ccc(F)c(C#N)c3)c(C)c(=O)n2c1 (stereo not shown) [Compound 1092],0.1 to 0.5,,,A (A denotes >20-fold)
Cc1cc(C(C)Nc2cccc3[nH]nnc23)c2nc(N3CCOCC3)cc(=O)n2c1 (stereo not shown) [Compound 743],,A (A denotes >20-fold),,
"Cc1cc(C(C)Nc2ccccc2C(=O)O)c2nc(-c3cnc4c(c3)c(C)c(C)n4C)c(C)c(=O)n2c1 (stereo not shown) [Compound 1410, 2-((1-(3,7-dimethyl-4-oxo-2-(1,2,3-trimethyl-1H-pyrrolo[2,3-b]pyridin-5-yl)-4H-pyrido[1,2-a]pyrimidin-9-yl)ethyl)amino)benzoic acid]",< 0.1,,,A (A denotes >20-fold)
CC(=O)N1CCC(c2ccc(-c3nc4c([C@@H](C)Nc5ccccc5C(=O)O)cc(C)cn4c(=O)c3C)cc2)CC1 [Compound 1289],0.1 to 0.5,,,A (A denotes >20-fold)
C=CC(=O)Nc1ccc(C(=O)O)c(NC(C)c2cc(C)cn3c(=O)cc(N4Cc5ccccc5C4)nc23)c1 (stereo not shown) [Compound 840],> 2,C (C denotes ≤5-fold),,
Cc1cc([C@H](C)Nc2ccccc2C(=O)O)c2nc(-c3cnc4c(c3)c(C)nn4C)c(C)c(=O)n2c1 [Compound 763],0.5 to 2,B (B denotes 20-fold≥value>5-fold),,
Cc1cc([C@@H](C)Nc2ccccc2C(=O)O)c2nc(-c3ccc4[nH]c(=O)oc4c3)cc(=O)n2c1 [Compound 541],,,0.1 to 0.5,A (A denotes >20-fold)
Cc1cc([C@@H](C)Nc2ccccc2)c2nc(N(C)Cc3ccccc3)c(C)c(=O)n2c1 [Compound 1163],0.1 to 0.5,,,A (A denotes >20-fold)
Cc1cc([C@H](C)Nc2ccccc2-c2ccnnc2)c2nc(N3CCOCC3)cc(=O)n2c1 [Compound 496],,,0.5 to 2,C (C denotes ≤5-fold)
"Cc1cc([C@@H](C)Nc2ccccc2C(=O)O)c2nc(-c3cnc(C)c(Cl)c3)c(C)c(=O)n2c1 (single isomer, unassigned) [Compound 951]",< 0.1,A (A denotes >20-fold),,
"Cc1cc([C@H](C)Nc2ccccc2C(=O)O)c2nc(N3Cc4ccccc4C3)cc(=O)n2c1 (single isomer, unassigned) [Compound 393]",,,< 0.1,A (A denotes >20-fold)
Cc1cc([C@@H](C)Nc2ccccc2C(=O)O)c2nc(C#CC3CC3)cc(=O)n2c1 [Compound 1224],,,,C (C denotes ≤5-fold)
